Measured values: patent US20120289681A1, “CONJUGATES OF CELL-PENETRATING PEPTIDES AND PHOSPHORESCENT METALLOPORPHYRINS FOR INTRACELLULAR OXYGEN MEASUREMENT” (UNIVERSITY COLLEGE CORK, NATIONAL UNIVERSITY OF IRELAND CORK, priority 2009, published 2012)
Starred links: 1 amine or outer side, 2 acyl side, 3 side chain; linkers in the order of their positions; H or OH if unused. Non-standard residues stand in square brackets, D forms with d. Residues, ends and D or L forms follow the SMILES beside them. No end group written: not given here. *: point of attachment. X1 = CCOC(=O)CCC1=C(C)c2cc3[nH]c(cc4nc(cc5[nH]c(cc1n2)c(C)c5CCC(=O)OCC)C(C)=C4CCC(=O)NCCNC(=O)CCN1C(=O)CC(*)C1=O)c(C)c3CCC(=O)OCC; X2 = CC1=C(CCC(=O)O)c2cc3[nH]c(cc4nc(cc5[nH]c(cc1n2)c(CCC(=O)O)c5C)C(CCC(=O)*)=C4C)c(CCC(=O)O)c3C; X3 = S=C(Nc1ccc(CCN[*:1])cc1)[*:2]; PtCP‑NCS = not defined here

How the values were obtained:
Assay type in all cases: cell-based
cells [1] = assay: Toxicity of the dye/probe on cells (cell line not stated)
PC12 cells [2] = assay: Cell loading with O2 probes assessed by time-resolved fluorometry (TR-F plate reader)
Experimental: (§1) PC12 cells were seeded in standard 96-well plates pre-coated with collagen IV at 5×10^4 cells/well, and differentiated for 3-5 days in RPMI supplemented with 1% horse serum, P/S, and 100 ng/ml nerve growth factor. HepG2 cells were cultured in DMEM supplemented with 10% FBS, 2 mM L-glutamine and P/S, CHO—in Ex-Cell CHO DHFR^− medium supplemented with 4 mM L-glutamine and 1 μM methotrexate, HCT116—in McCoy medium supplemented with 10% FBS, 2 mM L-glutamine and P/S. The samples with cells were then loaded by incubating them with 1-10 μM of the O2 probe (prepared as described in Example 1) in regular medium at 37° C., 5% CO2, for the required period of time. After incubation the cells were washed 3 times with medium and 0.1 ml of fresh medium were added to each well. For comparison, some samples with cells were loaded with 1.2 μM PtCP-BSA probe (Luxcel Biosciences) in the presence of 6 μM Endo-Porter, as previously described (Zhdanov A V et al—J Biol Chem 283:5650-5661; 2008). The plate with loaded cells and control samples was then measured on a time-resolved fluorescence (TR-F) plate reader Victor 2 (PerkinElmer) set at 37° C., using 340 nm excitation and 642 nm emission filters. Each well was measured several times by taking TR-F intensity reading at delay time of 30 μs and gate time 100 μs. Measured TR-F signals were averaged and used to assess the efficiency of loading.
(§2) PC12 cells (seeded at 50,000 cells/well in standard 96 well plates and differentiated under standard conditions) were loaded with the cell-penetrating O2 probes in standard medium, using 1-10 uM probe concentrations, volume 100 ul/well and incubation time ranging from 20 min to 24 hrs. After probe loading wells were carefully washed three times with DME medium without phenol red and containing NGF. The same protocol was used for loading of adherent HCT116, HepG2 and SHSY5Y cells, using corresponding media.

HCT116 cells = assay: Cell loading with O2 probes in HCT116 cells
Experimental: as §1, with “loading. […]” for “loading.”

[3] = Cell viability assessment by total cellular ATP (CellTiter-Glo); details: rat, differentiated PC12 cells
Experimental: Cell viability was assessed by measuring total cellular ATP in the loaded cells using CellTiter-Glo luminescent kit (Promega). PC12 cells were seeded into 96 well plates at concentration 50,000/well, differentiated for 3 days, loaded with peptide probe at a concentration 10 uM for 21 hrs, then washed. CellTiter-Glo reagent was then added to each well and chemiluminescence was measured on the Victor2 plate reader (Perkin-Elmer). The total luminescence signal of unloaded cells was taken as 100% viability. For the cells loaded with probes, no significant changes in ATP were observed and cell viability was retained at 93-95%.

PC12 cells [4] = assay: Respiratory response of probe-loaded cells to stimulation with FCCP (lifetime on TR-F reader); details: 1 uM FCCP
Experimental: as §2
Measurement of the cells loaded with probes was conducted on a TR-F plate reader Victor 2 (PerkinElmer, USA) at 37° C. as described in (O'Riordan T C et al—Anal Chem 79:9414-9419; 2007), using 340 nm excitation and 642 nm emission filters. Each well was measured repetitively every 1.8 minutes by taking two TR-F intensity readings at delay times of 30 μs (T1) and 70 μs (T2), using gate time 100 μs. Fluorescence intensity values at T1 (F1) and T2 (F2) were used for calculation of lifetime values using the following equation:
Lifetime [us]=(T2−T1)/ln(F1/F2),
For cell stimulation, the plate was monitored for 10-20 min to reach O2 and temperature equilibrium and obtain basal signals, then quickly withdrawn from the reader, compounds were added to the cells (10 μL of 10× stock solution) and monitoring was resumed. Metabolic effectors were added to the cells at the following final concentrations: 1 uM FCCP, 10 uM antimycin A, 0.5 uM Valinomycin, 5 mM EGTA, 100 mM KCl.

cells [5] = assay: Cell-penetrating / cell-loading ability (cell line not stated)

Compound | uptake / accumulation in PC12 cells (in words) (PC12 cells [2]) | loading of HCT116 cells (in words) (HCT116 cells) | viability at 21 h, 10 µM [3] [%] | magnitude of respiratory response to FCCP in lifetime units (PC12 cells [4]) | further results
Pt-tetrakis(pyridinium)porphine tetrachloride |  |  |  |  | toxicity on cells (in words) (cells [1]): high cyto- and phototoxicity
PtCP-BSA: conventional cell-impermeable O2 probe (Luxcel Biosciences), loaded with Endo-Porter transfection reagent [reference compound] |  |  |  |  | average fluorescence signals (cell loading) (PC12 cells [2]; probe loaded by transfection (Endo-Porter)): 60,000 cps
PtCP-BN: PtCP-NCS derivative labelled on N-terminal amino group of BN (bactenecin) peptide GPRPLPFPRPG ({PtCP‑NCS}-GPRPLPFPRPG; reading uncertain) | low uptake | did not load well |  |  | 
CCOC(=O)CCC1=C(C)c2cc3[nH]c(cc4nc(cc5[nH]c(cc1n2)c(C)c5CCC(=O)OCC)C(C)=C4CCC(=O)NCCNC(=O)CCN1C(=O)CC(SC[C@H](N)C(=O)N[C@@H](Cc2ccccc2)C(=O)N[C@@H](CCCNC(=N)N)C(=O)N[C@@H](CCCNC(=N)N)C(=O)N[C@@H](CCCNC(=N)N)C(=O)N[C@@H](CCCNC(=N)N)C(=O)N[C@@H](CCCNC(=N)N)C(=O)N[C@@H](CCCNC(=N)N)C(=O)N[C@@H](CCCNC(=N)N)C(=O)N[C@@H](CCCNC(=N)N)C(=O)N[C@@H](CCCNC(=N)N)C(=O)O)C1=O)c(C)c3CCC(=O)OCC (some centres unmarked) [PTCPTE-CFR9] (H-C(X1)FRRRRRRRRR-OH; N-terminus assumed) | higher intracellular uptake than PTCPTE-TAT |  | 93 to 95 | about 2 microseconds | average fluorescence signals (cell loading) (PC12 cells [2]; after 24 h of loading): about 200,000 counts; increase in probe lifetime on FCCP stimulation (PC12 cells [4]): 2 us
PEPP5: MTS-CGR9 peptide MGRTVVVLGGGISGLAAGCGRRRRRRRRR labelled with PTCPTE-MI derivative (PTCPTE-MI label) |  |  |  |  | cell-penetrating / cell-loading ability (in words) (cells [5]): high cell loading efficiency
CC1=C(CCC(=O)O)c2cc3[nH]c(cc4nc(cc5[nH]c(cc1n2)c(CCC(=O)O)c5C)C(CCC(=O)NCCc1ccc(NC(=S)N[C@@H](Cc2ccccc2)C(=O)N[C@@H](CCCNC(=N)N)C(=O)N[C@@H](CCCNC(=N)N)C(=O)N[C@@H](CCCNC(=N)N)C(=O)N[C@@H](CCCNC(=N)N)C(=O)N[C@@H](CCCNC(=N)N)C(=O)N[C@@H](CCCNC(=N)N)C(=O)N[C@@H](CCCNC(=N)N)C(=O)N[C@@H](CCCNC(=N)N)C(=O)N[C@@H](CCCNC(=N)N)C(=O)O)cc1)=C4C)c(CCC(=O)O)c3C [PtCP-FR9] (X2-[X3]FRRRRRRRRR-OH; C-terminus assumed) | low uptake | did not load well | 93 to 95 | about 2 microseconds | 
